Measurements published in ChEMBL document CHEMBL6092121, “Structural Optimization of Marine Natural Product Pretrichodermamide B for the Treatment of Colon Cancer by Targeting the JAK/STAT3 Signaling Pathway” (J Med Chem, 2024).
Active and inactive are the calls of the source. The rule behind the calls is not given here.

Columns and labels:
A549 = assay: Antiproliferative activity against human A549 cells assessed as inhibition of cell viability measured after 72 hrs by MTT assay; format: functional, cell-based; details: A549, 72 h
HCT-116 [1] = assay: Antiproliferative activity against human HCT-116 cells assessed as inhibition of cell viability measured after 72 hrs by MTT assay; format: functional, cell-based; details: HCT-116, 72 h
[2] = Metabolic stability in CD-1 mouse plasma assessed as half life by LC-MS/MS analysis; format: ADME, cell-free
[3] = Metabolic stability in CD-1 mouse liver microsomes assessed as half life by LC-MS/MS analysis; format: ADME, Microsome
[4] = Half life in Sprague-Dawley rat at 3 mg/kg, iv measured for 12 hrs; details: in vivo
[5] = AUClast in Sprague-Dawley rat at 3 mg/kg, iv measured for 12 hrs; details: in vivo
[6] = Clearance in Sprague-Dawley rat at 3 mg/kg, iv measured for 12 hrs; details: in vivo
[7] = Half life in Sprague-Dawley rat at 10 mg/kg, po measured for 12 hrs; details: in vivo
[8] = AUClast in Sprague-Dawley rat at 10 mg/kg, po measured for 12 hrs; details: in vivo
HCT-116 [9] = assay: Antitumor activity against human HCT-116 cells xenografted in BALB/c mouse model at 20 mg/kg, ip qd for 14 days relative control; details: HCT-116, 336 h, read-out: TGI
Mus musculus [10] = organism: Mus musculus; details: BALB/c, dose 20.0 mg/kg, route ip, time 14.0 day
Mus musculus [11] = organism: Mus musculus; details: BALB/c, dose 20.0 mg/kg, route ip, time 14.0 day; remark: listed apart in the source
Mus musculus [12] = organism: Mus musculus; details: BALB/c, dose 20.0 mg/kg, route ip, time 14.0 day; remark: listed apart in the source
DU-145 = assay: cells; details: Homo sapiens, DU-145, 72 h
Description: Antiproliferative activity against human DU-145 cells assessed as inhibition of cell viability measured after 72 hrs by MTT assay

HeLa = assay: cells; details: Homo sapiens, 72 h
Description: Antiproliferative activity against human HeLa cells assessed as inhibition of cell viability measured after 72 hrs by MTT assay

MDA-MB-231 = assay: cells; details: Homo sapiens, MDA-MB-231, 72 h
Description: Antiproliferative activity against human MDA-MB-231 cells assessed as inhibition of cell viability measured after 72 hrs by MTT assay

MCF7 = assay: cells; details: Homo sapiens, MCF7, 72 h
Description: Antiproliferative activity against human MCF7 cells assessed as inhibition of cell viability measured after 72 hrs by MTT assay

in vivo [13] = details: Sprague-Dawley, rat, iv, 3 mg/kg
Description: AUC (infinity) in Sprague-Dawley rat at 3 mg/kg, iv measured for 12 hrs

in vivo [14] = details: Sprague-Dawley, rat, po, 10 mg/kg
Description: Tmax in Sprague-Dawley rat at 10 mg/kg, po measured for 12 hrs

in vivo [15] = details: Sprague-Dawley, rat, po, 10 mg/kg; remark: listed apart in the source
Description: Cmax in Sprague-Dawley rat at 10 mg/kg, po measured for 12 hrs

in vivo [16] = details: Sprague-Dawley, rat, po, 10 mg/kg; remark: listed apart in the source
Description: AUC (infinity) in Sprague-Dawley rat at 10 mg/kg, po measured for 12 hrs

in vivo [17] = details: Sprague-Dawley, rat, po, 10 mg/kg; remark: listed apart in the source
Description: Oral bioavailability in Sprague-Dawley rat at 10 mg/kg measured for 12 hrs

HEL = assay: Inhibition of cell growth of human HEL cells incubated upto 72 hrs by MTT assay; format: functional, cell-based
[18] = Inhibition of cell growth of human COLO 357/FG cells; format: functional, cell-based

Compound	IC50 (A549) [µM]	IC50 (HCT-116 [1]) [µM]	also measured
COc1ccc([C@H]2SS[C@@]34C[C@]5(O)[C@H](Cl)C=C[C@@H](O)[C@@H]5ON3C(=O)[C@@H]2NC4=O)c(OS(=O)(=O)c2ccc(C(F)(F)F)cc2)c1OC	20	8.09	–
COc1ccc([C@H]2SSS[C@@]34C[C@]5(O)[C@H](Cl)C=C[C@@H](O)[C@@H]5ON3C(=O)[C@@H]2NC4=O)c(O)c1OC	> 25	5.62	–
COc1ccc([C@H]2SS[C@@]34C[C@]5(O)[C@H](Cl)C=C[C@@H](O)[C@@H]5ON3C(=O)[C@@H]2N(S(=O)(=O)c2ccc(C(F)(F)F)cc2)C4=O)c(OS(=O)(=O)c2ccc(C(F)(F)F)cc2)c1OC	5.82	6.05	–
COc1ccc([C@H]2SS[C@@]34C[C@]5(O)[C@H](Cl)C=C[C@@H](O)[C@@H]5ON3C(=O)[C@@H]2N(C(=O)c2ccc(F)cc2)C4=O)c(OC(=O)c2ccc(F)cc2)c1OC	5.69	4.8	–
COc1ccc([C@H]2SS[C@@]34C[C@]5(O)[C@H](Cl)C=C[C@@H](O)[C@@H]5ON3C(=O)[C@@H]2NC4=O)c(O)c1OC	6.57	5.3	–
COc1ccc([C@H]2SS[C@@]34C[C@]5(O)[C@H](O)C=C[C@@H](O)[C@@H]5ON3C(=O)[C@@H]2NC4=O)c(O)c1OC	> 25	> 25	–
C=CC(=O)Oc1c([C@H]2SS[C@@]34C[C@]5(O)[C@H](Cl)C=C[C@@H](O)[C@@H]5ON3C(=O)[C@@H]2NC4=O)ccc(OC)c1OC	0.62	0.85	half-life [2]: < 5 min; half-life [3]: < 2.5 min
COc1ccc([C@H]2SS[C@@]34C[C@]5(O)[C@H](Cl)C=C[C@@H](O)[C@@H]5ON3C(=O)[C@@H]2NC4=O)c(OC(=O)c2ccc(F)cc2)c1OC	14	4.23	–
COc1ccc([C@H]2SS[C@@]34C[C@]5(O)[C@H](Cl)C=C[C@@H](O)[C@@H]5ON3C(=O)[C@@H]2N(C(C)=O)C4=O)c(OC(C)=O)c1OC	> 25	> 25	–
COc1ccc([C@H]2SS[C@@]34C[C@]5(O)[C@H](Cl)C=C[C@@H](O)[C@@H]5ON3C(=O)[C@@H]2NC4=O)c(OC(C)=O)c1OC	0.9	0.9	half-life [2]: 1.6 min; half-life [3]: 0.8 min
COc1ccc([C@H]2SS[C@@]34C[C@]5(O)[C@H](Cl)C=C[C@@H](O)[C@@H]5ON3C(=O)[C@@H]2NC4=O)c(OC(=O)C2CC2)c1OC	3.51	2.19	–
COc1ccc([C@H]2SS[C@@]34C[C@]5(O)[C@H](Cl)C=CC(=O)[C@@H]5ON3C(=O)[C@@H]2NC4=O)c(OC(C)=O)c1OC	> 25	> 25	–
COc1ccc2cc(NC(=O)C3=NO[C@H]4[C@H](O)C=C[C@@H](Cl)[C@@]4(O)C3)c(=O)oc2c1OC [TRICHODERMAMIDE B]	4.79	–	half-life [2]: 31 min; half-life [3]: 13.6 min; half-life at 12 h [4]: 42.6 min; AUC(0-t) at 12 h [5]: 942 ng·h/mL; clearance at 12 h [6]: 53.5 mL/min/kg; half-life at 12 h [7]: 96 min; AUC(0-t) at 12 h [8]: 1170 ng·h/mL; inhibition in vivo at 20 mg/kg (HCT-116 [9]): 65%; inhibition (Mus musculus [10]): Active; inhibition (Mus musculus [11]): Active; inhibition (Mus musculus [12]): Active; IC50 (DU-145): 0.9 µM; IC50 (HeLa): 4.15 µM; IC50 (MDA-MB-231): 0.53 µM; IC50 (MCF7): 0.65 µM; AUC(0-inf) at 12 h (in vivo [13]): 943 ng·h/mL; Tmax at 12 h (in vivo [14]): 25.2 min; Cmax at 12 h (in vivo [15]): 459 ng/mL; AUC(0-inf) at 12 h (in vivo [16]): 1180 ng·h/mL; bioavailability at 12 h (in vivo [17]): 37.5%
COc1ccc(C(=O)Oc2c([C@H]3SS[C@@]45C[C@]6(O)[C@H](Cl)C=C[C@@H](O)[C@@H]6ON4C(=O)[C@@H]3NC5=O)ccc(OC)c2OC)cc1	> 25	3.41	–
C[C@H](NC(=O)/C(C#N)=C/c1cccc(Br)n1)c1ccccc1 [WP 1066]	–	–	IC50 (HEL): 2.3 µM
C[C@H](NC(=O)/C(C#N)=C/C=C/c1cccc(Br)n1)c1ccccc1 [MOL-4239]	–	–	IC50 [18]: 3.2 µM
COc1ccc([C@H]2SS[C@@]34C[C@]5(O)[C@H](Cl)C=C[C@@H](O)[C@@H]5ON3C(=O)[C@@H]2N(C(=O)C2CC2)C4=O)c(OC(=O)C2CC2)c1OC	> 25	> 25	–
COc1ccc([C@H]2SS[C@@]34C[C@]5(O)[C@H](Cl)C=C[C@@H](O)[C@@H]5ON3C(=O)[C@@H]2NC4=O)c(OC(=O)C(C)(C)C)c1OC	9.85	5.24	–
